Measured values taken from US9061030B2, “sGC stimulators” (IRONWOOD PHARMACEUTICALS, INC., priority 2010, dated 2015).

Target: T1, soluble guanylate cyclase (sGC) (Homo sapiens, UniProt Q02108+Q02153)
T1 construct: endogenously expressing soluble guanylate cyclase (sGC); endogenous in cells; host or cells: HEK293
T1 sequence (Q02153 1-619): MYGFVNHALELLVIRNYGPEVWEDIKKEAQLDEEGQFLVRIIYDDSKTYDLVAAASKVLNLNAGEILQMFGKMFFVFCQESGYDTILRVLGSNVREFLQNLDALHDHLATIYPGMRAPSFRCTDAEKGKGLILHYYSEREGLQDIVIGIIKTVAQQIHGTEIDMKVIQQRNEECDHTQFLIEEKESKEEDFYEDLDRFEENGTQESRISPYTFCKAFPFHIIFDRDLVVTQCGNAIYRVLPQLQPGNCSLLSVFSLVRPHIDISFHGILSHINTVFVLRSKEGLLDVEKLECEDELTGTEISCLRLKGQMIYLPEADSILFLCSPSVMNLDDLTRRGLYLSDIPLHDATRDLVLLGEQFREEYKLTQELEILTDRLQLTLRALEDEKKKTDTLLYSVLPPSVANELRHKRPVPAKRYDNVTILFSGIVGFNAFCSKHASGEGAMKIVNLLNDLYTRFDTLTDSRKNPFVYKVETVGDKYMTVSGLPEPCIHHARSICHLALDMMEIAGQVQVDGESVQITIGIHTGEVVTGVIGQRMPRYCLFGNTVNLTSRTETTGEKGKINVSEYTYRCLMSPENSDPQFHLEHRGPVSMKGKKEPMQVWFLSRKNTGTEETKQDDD
T1 sequence (Q02108 1-690): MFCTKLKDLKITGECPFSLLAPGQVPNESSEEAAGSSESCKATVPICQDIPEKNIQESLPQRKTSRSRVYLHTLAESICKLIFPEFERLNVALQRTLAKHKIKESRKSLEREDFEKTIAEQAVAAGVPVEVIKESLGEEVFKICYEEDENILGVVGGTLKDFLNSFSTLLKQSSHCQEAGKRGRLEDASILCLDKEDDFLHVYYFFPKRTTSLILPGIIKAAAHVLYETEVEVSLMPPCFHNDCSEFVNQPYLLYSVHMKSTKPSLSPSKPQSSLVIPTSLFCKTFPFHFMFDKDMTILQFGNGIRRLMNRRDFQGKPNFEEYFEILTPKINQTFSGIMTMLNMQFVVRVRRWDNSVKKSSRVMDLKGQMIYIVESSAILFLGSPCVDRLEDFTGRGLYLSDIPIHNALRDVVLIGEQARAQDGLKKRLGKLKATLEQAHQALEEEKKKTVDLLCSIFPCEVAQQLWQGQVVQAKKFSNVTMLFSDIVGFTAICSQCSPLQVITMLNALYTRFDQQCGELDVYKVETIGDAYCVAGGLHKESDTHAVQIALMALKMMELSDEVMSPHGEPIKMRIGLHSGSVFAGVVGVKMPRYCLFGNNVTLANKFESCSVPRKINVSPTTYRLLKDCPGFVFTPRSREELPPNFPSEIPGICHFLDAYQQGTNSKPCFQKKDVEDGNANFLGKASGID
Test: sGC-HEK-cGMP assay
Assay type: cell-based
Settings: HEK293 cells, 10 μM SNP, percentage of sGC activity obtained with positive control BAY 41-2272 (= 100%); for Emax at 10 µM: compound at 10 μM; for Emax at 30 µM: compound at 30 μM
Summary of the method: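 HEK293 cells endogenously expressing sGC, preincubated 15 min at 37 °C with 0.5 mM IBMX, then exposed to compound plus 10 μM sodium nitroprusside for 10 min at 37 °C. Reaction stopped and cells lysed with 0.1 M HCl; cGMP quantified by LC/MS against a standard curve; EC50 from concentration-response curves.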

SMILES	Emax at 10 µM [%]	Emax at 30 µM [%]
Fc1ccccc1Cn1nc(-c2ccccn2)nc1-c1cscn1 [Compound I-4]	20 to 40	40 to 60
COC(=O)N(C)c1c(N)nc(-c2nc(-c3nccs3)n(Cc3ccccc3F)n2)nc1N [Compound I-61, methyl 4,6-diamino-2-(1-(2-fluorobenzyl)-5-(thiazol-2-yl)-1H-1,2,4-triazol-3-yl)pyrimidin-5-yl(methyl)carbamate]	20 to 40	40 to 60
Fc1ccccc1Cn1nc(-c2ccccn2)nc1-c1cocn1 [Compound I-12, 4-(1-(2-fluorobenzyl)-3-(pyridin-2-yl)-1H-1,2,4-triazol-5-yl)oxazole]	20 to 40	40 to 60
Fc1ccccc1Cn1nc(-c2ncccn2)nc1-c1cscn1 [Compound I-3]	0 to 5	20 to 40
Fc1ccccc1Cn1nc(-c2ncccn2)nc1-c1cocn1 [Compound I-46]	20 to 40	20 to 40
Fc1ccccc1Cn1nc(-c2ccccn2)nc1-n1cncn1 [Compound I-50, 2′-(2-fluorobenzyl)-5′-(pyridin-2-yl)-2′H-1,3′-bi(1′,2′,4-triazole)]	20 to 40	20 to 40
Fc1ccccc1Cn1nc(-c2ccccn2)nc1-c1ccccn1 [Compound I-1]	5 to 10	20 to 40

Now from value to compound:

Emax at 10 µM [%]	Emax at 30 µM [%]	SMILES
40 to 60	60 to 80	Nc1ccnc(-c2nc(-c3nccs3)n(Cc3ccccc3F)n2)n1 [Compound I-48, 2-(1-(2-fluorobenzyl)-5-(thiazol-2-yl)-1H-1,2,4-triazol-3-yl)pyrimidin-4-amine]
20 to 40	10 to 20	Fc1ccccc1Cn1nc(-c2cscn2)nc1-c1nccs1 [Compound I-40]
10 to 20	20 to 40	Fc1ccccc1Cn1nc(-c2ncccn2)nc1-c1nccs1 [Compound I-30]
40 to 60	60 to 80	Nc1ccnc(-c2nc(-c3cscn3)n(Cc3ccccc3F)n2)c1 [Compound I-53, 2-(1-(2-fluorobenzyl)-5-(thiazol-4-yl)-1H-1,2,4-triazol-3-yl)pyridin-4-amine]
20 to 40	40 to 60	Fc1ccccc1Cn1nc(-c2ccccn2)nc1-c1nccs1 [Compound I-25]
40 to 60	60 to 80	Fc1ccccc1Cn1nc(-c2nccs2)nc1-c1cscn1 [Compound I-41]
20 to 40	20 to 40	Fc1ccccc1Cn1nc(-c2ccccn2)nc1-c1ncco1 [Compound I-6]
40 to 60	20 to 40	Fc1ccc(-c2nc(-c3nccs3)n(Cc3ccccc3F)n2)nc1 [Compound I-38]
40 to 60	60 to 80	Nc1ccnc(-c2nc(-c3nccs3)n(Cc3ccccc3F)n2)c1 [Compound I-44]
